Source: patent US10307466B2, “Composition comprising sophorolipid, physiologically active substance and oil or fat, and method for producing the same” (SARAYA CO., LTD., priority 2014, dated 2019)

Assay: Binding to phosphatidylcholine-coated silica beads (TRANSIL Intestinal Absorption Kit)
Details: compared with the physiologically active substance alone taken as 1; for Relative amount of physiologically active substance bound to the beads, Example (sophorolipid): substance emulsified with sophorolipid; for Relative amount of physiologically active substance bound to the beads, Comparative Example (sucrose fatty acid ester): substance emulsified with sucrose fatty acid ester
Procedure: In the evaluation herein, the binding of substances to silica beads coated with a phospholipid (phosphatidylcholine) was compared. A higher binding indicates a higher cell membrane transport and a higher intestinal absorption.
An aqueous phase was prepared and the pH was adjusted with a pH adjuster to a pH value of 6. The aqueous phase and an oil phase were heated to 50 to 60° C. The aqueous phase was added to the oil phase. The mixture was stirred with a homogenizer (HG-200, As One Corporation) at a high speed of 10,000 rpm for 10 minutes to give an emulsion.
The affinity with phosphatidylcholine-coated silica beads (TRANSIL Intestinal Absorption Kit, SOVICELL GMBH) was assessed. A volume of 200 μl of PBS (phosphate buffered saline) containing the beads was added to each tube, and 20 μl of each of the compositions was added. The mixture was agitated with a test tube mixer for 12 minutes. The beads were allowed to settle, and the supernatant was collected and diluted to 10-fold. The fluorescence intensity of the supernatant was measured with a spectrophotometer (Hitachi F-2700, excitation wavelength: 494 nm, fluorescence wavelength: 521 nm).
A volume of 200 μl of PBS containing the beads was added to each tube, and 20 μl of each of the compositions was added. The mixture was agitated with a test tube mixer for 12 minutes. The beads were allowed to settle, and the supernatant was removed. The beads were washed with PBS, and 200 μl of methanol was added to elute oil red from the beads. The absorbance of the oil red solution in methanol was measured at 510 nm with an ultraviolet spectrophotometer (Shimadzu UV-1200). The relative amount of the pigment of Example 14 or Comparative Example 4 bound to the beads was calculated, with the obtained value of an oil red solution (Comparative Example 5) taken as 1.
A volume of 200 μl of PBS containing the beads was added to each tube, and 20 μl of each of the compositions was added. The mixture was agitated with a test tube mixer for 12 minutes. The beads were allowed to settle, and the supernatant was removed. The beads were washed with PBS, and 200 μl of methanol was added to elute tocopherol from the beads. The amount of tocopherol was measured by HPLC (Shimadzu LC-10A series). The relative amount of tocopherol of Example 15 or Comparative Example 6 bound to the beads was calculated, with the obtained value of a tocopherol solution (Comparative Example 7) taken as 1.
A volume of 200 μl of PBS containing the beads was added to each tube, and 20 μl of each of the compositions was added. The mixture was agitated with a test tube mixer for 12 minutes. The beads were allowed to settle, and the supernatant was removed. The beads were washed with PBS, and 200 μl of hexane was added to elute DHA from the beads. The amount of DHA was measured by gas chromatography (Shimadzu GC-2014 series).
The relative amount of DHA of Example 16 or Comparative Example 8 bound to the beads was calculated, with the obtained value of a DHA solution (Comparative Example 9) taken as 1.
GC was used for the analysis of eicosapentaenoic acid and linoleic acid. […] An atomic absorption spectrophotometer was used for the analysis of zinc gluconate, copper gluconate, and iron citrate.
The calculated value was expressed by the symbols A, B and C. The affinities of the physiologically active substances were assessed by comparing the cases where each physiologically active substance was emulsified with a sucrose fatty acid ester or the sophorolipid and where each of the physiologically active substances was used alone.

## Zinc gluconate
  Relative amount of physiologically active substance bound to the beads, Example (sophorolipid): B (affinity of not less than 2.0-fold and less than 5.0-fold)
  Relative amount of physiologically active substance bound to the beads, Comparative Example (sucrose fatty acid ester): C (affinity of less than 2.0-fold)

## Copper gluconate
  Relative amount of physiologically active substance bound to the beads, Example (sophorolipid): B (affinity of not less than 2.0-fold and less than 5.0-fold)
  Relative amount of physiologically active substance bound to the beads, Comparative Example (sucrose fatty acid ester): C (affinity of less than 2.0-fold)

## Iron citrate
  Relative amount of physiologically active substance bound to the beads, Example (sophorolipid): B (affinity of not less than 2.0-fold and less than 5.0-fold)
  Relative amount of physiologically active substance bound to the beads, Comparative Example (sucrose fatty acid ester): C (affinity of less than 2.0-fold)
